Experimental data as given in US9593149B2, “Amylin and calcitonin receptor agonist” (Novo Nordisk A/S, priority 2014, dated 2017).
Values after ≈ are worked out from the molar mass of the structure shown. Numbered stars: 1 amine (or outer) side, 2 acyl side, 3 side chain; on linkers, the order of the positions; unused ones are H or OH. Peptide text beside a SMILES is read from it. * marks the point of attachment. C18 diacid = O=C(O)CCCCCCCCCCCCCCCCC(=O)*; γGlu = O=C(O)[C@H](CCC(=O)[*:2])N[*:1]; C14 diacid = O=C(O)CCCCCCCCCCCCC(=O)*; AEEA = NCCOCCOCC(=O)O

Assays:
[1] = Assay (X) pK, T½ in rat; format: in vivo, Sprague Dawley rats
Method: Assay (X)—pK—Determination of T½ in Rat
Pharmacokinetic (PK) studies rats were conducted in order to determine the T½ of mimylin peptide after i.v. and s.c. administration.
T½ values of the mimylin derivates of the invention is determined by pharmacokinetic studies in Sprague Dawley male rats, from Taconic Europe and the principles of laboratory animal care are followed.
An acclimatisation period of approximately 7 days was allowed before the animals entered the study. At start of the acclimatisation period the rats were in the weight range of 250-400 g.
The studies were conducted in an animal room which was illuminated to give a cycle of approximately 12 hours light and 12 hours darkness. The animals were group housed and had food and water ad lib. The animals were weighed on the days of dosing.
In the present studies the test substances were administered subcutaneously or intravenously in approximately 20 nmol/kg dose. The animals received a single subcutaneous injection to the neck for subtaneous administration or directly into the tail vein for intravenous administration. Each test substance was given to typically three but in some cases two or four animals.
A full plasma concentration-time profile, employing 8-10 sampling points, was obtained from each animal. In example blood samples were collected according to the following schedule: After subcutaneous or intravenous administration:
At each sampling time, 0.08 to 0.10 ml of blood was drawn from each animal. The blood samples were taken in the sublingual vein via venous puncture and the use of a capillary tube.
The blood samples were stabilised with EDTA. Blood samples were kept on ice for max 20 min. before centrifugation. Plasma was separated using centrifugation (i.e. at 4° C., 10 min., 1500G) and was immediately transferred to Micronic tubes or PCR plates. Approximately 40 μl plasma was transferred and was stored at −20° C. until assayed. The plasma samples were assayed for the content of mimylin compound by LCMS
The plasma concentration-time profiles were analysed by a non-compartmental pharmacokinetic analysis (NCA) using Phoenix WinNonlin 6.3 (Pharsight Inc., Mountain View, Calif., USA). NCA was performed using the individual plasma concentration-time profiles from each animal. T½ is the terminal half-life=In2/λz and was determined from λz, the first order rate constant associated with the terminal (log-linear) portion of the curve, estimated by linear regression of time vs. log concentration.

[2] = target: T1, human calcitonin (a) receptor, BHK570 cells (Homo sapiens, UniProt P30988); assay: Assay (II)a functional CRE-luciferase assay with albumin, human calcitonin receptor; format: cell-based; conditions: Tested with HSA; read-out: hCTR funct. EC50
T1 construct: host or cells: BHK570
T1 sequence (P30988 25-474): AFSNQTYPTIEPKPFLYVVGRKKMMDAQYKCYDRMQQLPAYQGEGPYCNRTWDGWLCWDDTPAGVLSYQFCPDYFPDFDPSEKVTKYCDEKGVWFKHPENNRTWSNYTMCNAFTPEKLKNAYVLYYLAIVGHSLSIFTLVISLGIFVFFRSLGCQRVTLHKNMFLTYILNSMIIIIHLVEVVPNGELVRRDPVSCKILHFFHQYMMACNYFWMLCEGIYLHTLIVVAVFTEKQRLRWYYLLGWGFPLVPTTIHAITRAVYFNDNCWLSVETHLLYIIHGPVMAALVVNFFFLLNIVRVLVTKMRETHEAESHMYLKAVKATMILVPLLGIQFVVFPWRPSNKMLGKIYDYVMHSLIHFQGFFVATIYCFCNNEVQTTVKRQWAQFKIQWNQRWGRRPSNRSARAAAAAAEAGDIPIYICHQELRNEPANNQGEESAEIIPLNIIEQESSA
Excerpt: Assay(II)a—Human Calcitonin and Amylin Receptor Assay
(§1) 1. Luciferase Assay Outline
(§2) Activation of calcitonin and amylin (co-expression of calcitonin receptor and receptor activity modifying proteins (RAMP)) receptors lead to increased intracellular concentrations of cAMP. Consequently, transcription is activated by promoters containing multiple copies of the cAMP response element (CRE). It is thus possible to measure amylin activity by the use of a CRE luciferase reporter gene introduced into BHK cells also expressing calcitonin or amylin receptors.
(§3) 2. Construction of Calcitonin (a)—and Amylin 3(a)—Receptor/CRE-Luc Cell Line.
A BHK570 cell line was stably transfected with the human calcitonin receptor and a CRE-responsive luciferase reporter gene. The cell line was further transfected with RAMP-3, using standard methods. This turns the calcitonin receptor into an amylin 3(a) receptor. Methotrexate, Neomycin, and Hygromycin are selection markers for luciferase, the calcitonin receptor, and RAMP-3, respectively.
To perform activity assays, BHK calcitonin (a) receptor- or amylin 3(a)-receptor/CRE-luc cells were seeded in white 96 well culture plates at a density of about 20.000 cells/well. […] After incubation overnight at 37° C. and 5% CO2, the growth medium was replaced by 50 μl/well assay medium (DMEM (without phenol red), Glutamax™, 10% FBS, and 10 mM Hepes, pH 7.4). Further, 50 μl/well of standard or sample in assay buffer were added.
After 3 hours incubation at 37° C. and 5% CO2, the assay medium with standard or sample were removed and replaced by 100 μl/well PBS. Further, 100 μl/well LucLite™ was added. The plates were sealed and incubated at room temperature for 30 minutes. Finally, luminescence was tested on a TopCounter (Packard) in SPC (single photon counting) mode.

[3] = target: T2, human amylin 3(a) receptor (human calcitonin receptor + RAMP-3), BHK570 cells (Homo sapiens, UniProt O60896+P30988); assay: Assay (II)b functional CRE-luciferase assay without albumin, human amylin receptor; format: cell-based; conditions: Tested without HSA; read-out: hAmylin-R funct. EC50
T2 construct: host or cells: BHK570
T2 sequence (O60896 24-148, one chain of several): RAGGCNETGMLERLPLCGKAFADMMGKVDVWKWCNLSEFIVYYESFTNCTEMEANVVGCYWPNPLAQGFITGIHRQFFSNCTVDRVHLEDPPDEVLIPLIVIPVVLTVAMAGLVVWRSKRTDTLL
Excerpt: (§4) Assay(II)b—Human Calcitonin and Amylin Receptor Assay without Albumin
as §1, §2, §3
(§5) A BHK570 cell line was stably transfected with the human calcitonin receptor and a CRE-responsive luciferase reporter gene (Hollex-1 cell line, obtained from ZymoGenetics described in U.S. Pat. No. 5,622,839). The cell line was further transfected with RAMP-3, using standard methods. This turns the calcitonin receptor into an amylin 3(a) receptor. Methotrexate, Neomycin, and Hygromycin are selection markers for luciferase, the calcitonin receptor, and RAMP-3, respectively. To prepare the batches of frozen cells used in the luciferase assay described in the section below, the cells were cultured in growth medium (DMEM with 10% FBS, 1% Pen/Strep and 1 mM Napyruvate). […] Cells at approximately 80-90% confluence were washed with PBS and loosened from the plates with Versene. After centrifugation (2 min, 1300 rpm, in a Centrion Scientific centriuge C2 series with a BRK 5510 rotor head), the cell pellet was dissolved in 10% DMSO, 30% FBS and 60% growth medium and frozen (−80° C.) until utilization.
(§6) The day before the experiment, BHK calcitonin (a) receptor- or amylin 3(a)-receptor/CRE-luc cells were thawed, washed twice, and seeded in 40 μl growth medium on white 384 well culture plates (4.000 cells/well). On the assay day, the cells were washed 3 times in assay media (Dulbecco media W/o phenol red, 500 ml (Gibco, 11880-028); 0.1% ovalbumin; 10 mM Hepes pH 7.4; 1× Glutamin; 1% Pen/Strep). Then, 30 μl/well of sample diluted in assay buffer was added. After 3 hours of incubation at 37° C. and 5% CO2, the reaction was terminated by adding 30 μl/well SteadyLite Plus™. The plates were shaken at 300 rpm for 5 min at RT. Then, the plates were sealed and incubated at room temperature for 30 minutes. Finally, luminescence was tested on a TopCounter (Packard) in SPC (single photon counting) mode.
(§7) Additional Comment Regarding Use of Data Retrieved Via this Method
(§8) For the same reasons, measurements made in Assay IIa should not be compared in Assay IIb.

[4] = target: T1, human calcitonin (a) receptor, BHK570 cells; assay: Assay (II)b functional CRE-luciferase assay without albumin, human calcitonin receptor; format: cell-based; conditions: Tested without HSA; read-out: hCTR funct. EC50
Excerpt: as §4, §1, §2, §3, §5, §6, §7, §8

[5] = Assay (IV) determination of solubility; format: physicochemical
Method: Assay (IV)—Determination of Solubility
The mimylin peptide was dissolved in water at ˜500 nmol/ml and mixed 1:1 with a series of buffers (100 mM glycylglycine pH 3.0, 100 mM glycylglycine pH 4.0, 100 mM glycylglycine pH 5.0, 100 mM bistrispropane pH 6.0, 100 mM bistrispropane pH 6.5, 100 mM bistrispropane pH 7.0, 100 mM bistrispropane pH 7.5, 100 mM bistrispropane pH 8.0).

[6] = target: T3, human amylin receptor (human calcitonin receptor + human RAMP3), BHK tk'ts 13 cells (Homo sapiens, UniProt O60896+P30988); assay: Assay (Va) binding to the human amylin receptor (whole cell); conditions: read-out: hAmylin-R binding IC50
T3 construct: expressed in transfected cells; host or cells: BHK tk'ts 13
T3 sequence (O60896 24-148, one chain of several): as above
Method: The day before the assay the cells were Seeded into Poly-D-Lysin coated 384W Opaque White, BD BioCoat plates (10000 cells/well) and Incubated overnight at 37° C., 5% CO2, 95% humidity.

## CC(C)C[C@H](NC(=O)[C@H](CCCCN)NC(=O)CNC(=O)[C@H](CC(C)C)NC(=O)[C@@H](NC(=O)[C@@H]1CSSC[C@H](N)C(=O)N[C@@H](CO)C(=O)N[C@@H](CC(N)=O)C(=O)N[C@@H](CC(C)C)C(=O)N[C@@H](CO)C(=O)N[C@@H]([C@@H](C)O)C(=O)N1)C(C)C)C(=O)N[C@@H](CO)C(=O)N[C@@H](CCC(N)=O)C(=O)N[C@@H](CCC(=O)O)C(=O)N[C@@H](CC(C)C)C(=O)N[C@@H](Cc1c[nH]cn1)C(=O)N[C@@H](CCCCN)C(=O)N[C@@H](CC(C)C)C(=O)N[C@@H](CCC(N)=O)C(=O)N[C@H](C(=O)N[C@@H](Cc1ccc(O)cc1)C(=O)N1CCC[C@H]1C(=O)N[C@@H](CCCNC(=N)N)C(=O)N[C@H](C(=O)N[C@@H](CC(N)=O)C(=O)N[C@H](C(=O)NCC(=O)N[C@@H](CO)C(=O)NCC(=O)N[C@H](C(=O)N1CCC[C@H]1C(N)=O)[C@@H](C)O)[C@@H](C)O)[C@@H](C)O)[C@@H](C)O [Salmon calcitonin, reference compound]
[1]; male, Sprague Dawley, plasma, sc, 20 nmol/kg
  half-life: 1 h

## CC(C)C[C@H](NC(=O)[C@H](CCCNC(=N)N)NC(=O)CNC(=O)[C@@H](NC(=O)[C@@H](NC(=O)[C@H](C)NC(=O)[C@@H](NC(=O)[C@H](CO)NC(=O)[C@@H](NC(=O)[C@H](CCC(=O)O)NC(=O)[C@H](CO)NC(=O)[C@H](C)NC(=O)CC[C@H](NC(=O)CCCCCCCCCCCCCCCCC(=O)O)C(=O)O)C(C)C)[C@@H](C)O)C(C)C)C(C)C)C(=O)N[C@@H](CO)C(=O)N[C@@H](C)C(=O)N[C@@H](CCC(=O)O)C(=O)N[C@@H](CC(C)C)C(=O)N[C@@H](Cc1c[nH]cn1)C(=O)N[C@@H](CCC(=O)O)C(=O)N[C@H](C(=O)N[C@@H](C)C(=O)N[C@H](C(=O)N[C@@H](CC(C)C)C(=O)N1CCC[C@H]1C(=O)N[C@@H](CCCNC(=N)N)C(=O)N[C@H](C(=O)N[C@@H](CCC(=O)O)C(=O)N[C@H](C(=O)NCC(=O)N[C@@H](CO)C(=O)NCC(=O)N[C@@H](CO)C(=O)N1CCC[C@H]1C(N)=O)[C@@H](C)O)[C@@H](C)O)[C@@H](C)O)C(C)C [compound 102, [N-terminal(C18 diacid-gGlu), des1, 5V, 9V, 10V, 20V, 30S, 31G]mimylin] ({C18 diacid-γGlu}-ASEVSTAVVGRLSAELHEVATLPRTETGSGSP-NH2)
[2]
  EC50: 0.028 nM
[3]
  EC50: 0.012 nM
[4]
  EC50: 0.006 nM
[5]; bistrispropane buffer, pH 6.5
  solubility at 18 h: ≥ 200 µM
[5]; bistrispropane buffer, pH 7.5
  solubility at 18 h: ≥ 200 µM
[5]; bistrispropane buffer, pH 6.0
  solubility at 18 h: ≥ 200 µM
[5]; bistrispropane buffer, pH 7.0
  solubility at 18 h: ≥ 200 µM
[5]; bistrispropane buffer, pH 8.0
  solubility at 18 h: ≥ 200 µM
[5]; glycylglycine buffer, pH 3.0
  solubility at 18 h: 6 µM (≈ 21.8 µg/mL)
[5]; glycylglycine buffer, pH 5.0
  solubility at 18 h: ≥ 200 µM
[6]
  IC50: 1.65 nM

## CC(C)C[C@H](NC(=O)[C@H](C)NC(=O)[C@H](C)NC(=O)[C@@H](NC(=O)[C@H](CO)NC(=O)[C@H](CC(C)C)NC(=O)[C@H](CCC(=O)O)NC(=O)[C@H](CO)NC(=O)[C@H](C)NC(=O)[C@H](CCC(=O)O)NC(=O)COCCOCCNC(=O)COCCOCCNC(=O)COCCOCCNC(=O)COCCOCCNC(=O)CC[C@H](NC(=O)CC[C@H](NC(=O)CCCCCCCCCCCCC(=O)O)C(=O)O)C(=O)O)[C@@H](C)O)C(=O)NCC(=O)N[C@@H](CCCNC(=N)N)C(=O)N[C@@H](CC(C)C)C(=O)N[C@@H](CO)C(=O)N[C@@H](C)C(=O)N[C@@H](CCC(=O)O)C(=O)N[C@@H](CC(C)C)C(=O)N[C@@H](Cc1cnc[nH]1)C(=O)N[C@@H](CCC(=O)O)C(=O)N[C@@H](CC(C)C)C(=O)N[C@@H](C)C(=O)N[C@H](C(=O)N[C@@H](CC(C)C)C(=O)N1CCC[C@H]1C(=O)N[C@@H](CCCNC(=N)N)C(=O)N[C@H](C(=O)N[C@@H](CCC(=O)O)C(=O)N[C@H](C(=O)NCC(=O)N1CCC[C@H]1C(=O)N[C@@H](CCC(=O)O)C(=O)N[C@@H](CO)C(=O)N1CCC[C@H]1C(N)=O)[C@@H](C)O)[C@@H](C)O)[C@@H](C)O [compound 5, [N-terminal(C14 diacid-2xgGlu-4xOEG)]mimylin] ({C14 diacid-γGlu-γGlu-AEEA-AEEA-AEEA-AEEA}-EASELSTAALGRLSAELHELATLPRTETGPESP-NH2)
[5]; pH 3.0
  Solubility: ≧200 μM
[5]; pH 4.0
  Solubility: ≧200 μM
[5]; pH 5.0
  Solubility: ≧200 μM
[5]; pH 6.0
  Solubility: ≧200 μM
[5]; pH 6.5
  Solubility: ≧200 μM
[5]; pH 7.0
  Solubility: ≧200 μM
[5]; pH 7.5
  Solubility: ≧200 μM
[5]; pH 8.0
  Solubility: ≧200 μM
[1]; i.v.
  PK rat iv T½: 6 h
[1]; s.c.
  PK rat sc T½: 13 h
